# Test results: ChEMBL document CHEMBL1201862, “PubChem BioAssay data set” (2004)
#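 48-hour exposure; five concentrations; linearly interpolated endpoints. Abbreviation: GI50, concentration required for 50% inhibition of growth.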 Activity calls are given as the source filed them. Rule as the data show it: active = GI50 up to about 1.1 µM and inactive = higher.
# Tests used:
# Test in all cases: inhibition of tumour cell growth, NCI panel, 48 h
# [1] = system: DU-145
# [2] = system: EKVX
# [3] = system: HCC 2998
# [4] = system: HCT-15
# [5] = system: HL-60
# [6] = system: HOP-62
# [7] = system: HOP-92
# [8] = system: HT-29
# [9] = system: K562
# [10] = system: MCF7
# [11] = system: MDA-N
# [12] = system: NCI-H23
# [13] = system: NCI-H460
# [14] = system: OVCAR-4
# [15] = system: OVCAR-8
# [16] = system: RPMI-8226
# [17] = system: SF-295
# [18] = system: SK-MEL-2
# [19] = system: SK-OV-3
# [20] = system: SR
Structure (SMILES),GI50 [1],GI50 [2],GI50 [3],GI50 [4],GI50 [5],GI50 [6],GI50 [7],GI50 [8],GI50 [9],GI50 [10],GI50 [11],GI50 [12],GI50 [13],GI50 [14],GI50 [15],GI50 [16],GI50 [17],GI50 [18],GI50 [19],GI50 [20]
C=CCOc1ccccc1/N=N/C(C#N)=N\Nc1ccccc1OCC=C,> 100 µM (inactive),> 100 µM (inactive),48.1 µM (inactive),> 100 µM,> 100 µM (inactive),> 100 µM (inactive),62.1 µM (inactive),> 100 µM (inactive),> 100 µM (inactive),> 100 µM (inactive),27.2 µM (inactive),> 100 µM (inactive),> 100 µM (inactive),> 100 µM (inactive),> 100 µM (inactive),> 100 µM (inactive),> 100 µM (inactive),> 100 µM (inactive),> 100 µM (inactive),> 100 µM (inactive)
O=C1OCC2(CO1)CC1C=CC2C1 (centres undefined),> 100 µM (inactive),> 100 µM (inactive),> 100 µM (inactive),> 100 µM,> 100 µM (inactive),> 100 µM (inactive),> 100 µM (inactive),> 100 µM (inactive),> 100 µM (inactive),> 100 µM (inactive),> 100 µM (inactive),> 100 µM (inactive),> 100 µM (inactive),> 100 µM (inactive),,> 100 µM (inactive),> 100 µM (inactive),> 100 µM (inactive),> 100 µM (inactive),> 100 µM (inactive)
CCC1=C(C=O)c2cc3[nH]c(cc4nc(c5c6[nH]c(cc1n2)c(C)c6C(=O)C5C(=O)OC)C(CCC(=O)OC)C4C)c(C)c3CC (centres undefined),> 100 µM (inactive),> 100 µM (inactive),> 100 µM (inactive),> 100 µM,> 100 µM (inactive),> 100 µM (inactive),> 100 µM (inactive),> 100 µM (inactive),> 100 µM (inactive),> 100 µM (inactive),> 100 µM (inactive),> 100 µM (inactive),> 100 µM (inactive),> 100 µM (inactive),> 100 µM (inactive),> 100 µM (inactive),> 100 µM (inactive),> 100 µM (inactive),> 100 µM (inactive),> 100 µM (inactive)
CCCCCCCCCC[C@H](O)[C@H]1CC[C@@H]([C@@H](O)CC[C@H](O)[C@@H]2CCC(CCCCCCC[C@@H](O)CC3=C[C@H](C)OC3=O)O2)O1 (some centres undefined),3.6 µM (inactive),1.89 µM (inactive),4.33 µM (inactive),3.64 µM,1.44 µM (inactive),1.65 µM (inactive),1.02 µM (active),1.73 µM (inactive),1.37 µM (inactive),1.49 µM (inactive),2.43 µM (inactive),1.31 µM (inactive),1.86 µM (inactive),4.4 µM (inactive),1.95 µM (inactive),2.52 µM (inactive),1.73 µM (inactive),1.39 µM (inactive),,2.05 µM (inactive)
Cc1ccc(NC(=O)CSc2nc(C)nc3c2sc(=S)n3-c2ccccc2)cc1,> 10 µM (inactive),5.08 µM (inactive),> 10 µM (inactive),> 10 µM,> 10 µM (inactive),2.29 µM (inactive),2.71 µM (inactive),7.36 µM (inactive),> 10 µM (inactive),> 10 µM (inactive),> 10 µM (inactive),> 10 µM (inactive),5.48 µM (inactive),2.2 µM (inactive),6.76 µM (inactive),> 10 µM (inactive),5 µM (inactive),> 10 µM (inactive),8.2 µM (inactive),9.89 µM (inactive)
CCOC(=O)C(=O)N1C(C)=C(C(=O)OCC)CC(C(=O)OCC)=C1C,> 100 µM (inactive),> 100 µM (inactive),> 100 µM (inactive),> 100 µM,> 100 µM (inactive),> 100 µM (inactive),> 100 µM (inactive),,> 100 µM (inactive),> 100 µM (inactive),> 100 µM (inactive),> 100 µM (inactive),> 100 µM (inactive),> 100 µM (inactive),,> 100 µM (inactive),> 100 µM (inactive),> 100 µM (inactive),> 100 µM (inactive),> 100 µM (inactive)
CCOC(=O)C(NC(=O)OCc1ccccc1)C(=O)O (centres undefined),> 100 µM (inactive),> 100 µM (inactive),> 100 µM (inactive),> 100 µM,> 100 µM (inactive),> 100 µM (inactive),> 100 µM (inactive),> 100 µM (inactive),> 100 µM (inactive),> 100 µM (inactive),> 100 µM (inactive),> 100 µM (inactive),> 100 µM (inactive),> 100 µM (inactive),> 100 µM (inactive),> 100 µM (inactive),> 100 µM (inactive),> 100 µM (inactive),,> 100 µM (inactive)
COc1ccc(C(OCC2OC(n3cc(C)c(=O)[nH]c3=O)CC2n2cc(Cn3cc(Cl)c(=O)[nH]c3=O)nn2)(c2ccccc2)c2ccccc2)cc1 (centres undefined),> 100 µM (inactive),> 100 µM (inactive),> 100 µM (inactive),> 100 µM,3 µM (inactive),> 100 µM (inactive),28.8 µM (inactive),> 100 µM (inactive),,21.8 µM (inactive),9.14 µM (inactive),> 100 µM (inactive),,> 100 µM (inactive),> 100 µM (inactive),4.31 µM (inactive),> 100 µM (inactive),> 100 µM (inactive),> 100 µM (inactive),4.02 µM (inactive)
COC1CC(N)(c2ccccc2)C(O)C(C)O1 (centres undefined),> 100 µM (inactive),> 100 µM (inactive),> 100 µM (inactive),> 100 µM,> 100 µM (inactive),> 100 µM (inactive),> 100 µM (inactive),,> 100 µM (inactive),> 100 µM (inactive),> 100 µM (inactive),> 100 µM (inactive),> 100 µM (inactive),> 100 µM (inactive),> 100 µM (inactive),> 100 µM (inactive),> 100 µM (inactive),> 100 µM (inactive),> 100 µM (inactive),> 100 µM (inactive)
O=C(c1ccccn1)C1(N2CCCCC2)CCCCC1,> 100 µM (inactive),> 100 µM (inactive),> 100 µM (inactive),> 100 µM,88.3 µM (inactive),> 100 µM (inactive),9.75 µM (inactive),78 µM (inactive),> 100 µM (inactive),> 100 µM (inactive),> 100 µM (inactive),91.6 µM (inactive),,> 100 µM (inactive),> 100 µM (inactive),50.2 µM (inactive),> 100 µM (inactive),> 100 µM (inactive),> 100 µM (inactive),> 100 µM (inactive)
CCOC(=O)CCC(NC(=O)c1ccc(Oc2nc3ccccc3nc2C(=O)OCC)cc1)C(=O)OCC (centres undefined),> 100 µM (inactive),> 100 µM (inactive),> 100 µM (inactive),> 100 µM,> 100 µM (inactive),63 µM (inactive),> 100 µM (inactive),> 100 µM (inactive),,> 100 µM (inactive),> 100 µM (inactive),> 100 µM (inactive),> 100 µM (inactive),> 100 µM (inactive),41.2 µM (inactive),> 100 µM (inactive),> 100 µM (inactive),> 100 µM (inactive),,> 100 µM (inactive)
